# Experimental data reported in patent publication US20240294548A1, “TRICYCLIC SULTAMS AND SULFAMIDES AS ANTITUMOR AGENTS” (PELOTON THERAPEUTICS INC., priority 2021, published 2024).
# Read-outs that look alike come from different tables or passages of the source.
# How the values were obtained:
# [1] = biological target: T1, DCAF15 RBM39 ternary complex (Homo sapiens, UniProt Q14498+Q66K64, DEL276-383); assay: DCAF15 RBM39 complex formation assay (FRET); type: biochemical
# T1 construct: Amino acids 150 to 331 of RBM39 were cloned into pGEX4T3; GST (from the pGEX4T3 vector, own knowledge) followed by a TEV cleavage site (N); made in house; host or cells: Sf9 baculovirus (DDB1ΔB/DCAF15); E. coli (RBM39 R1R2)
# Description: (§1) Proteins used for the assays were as follows: Human DDA1 (UniProt:Q9BW61), DDB1 (UniPro: Q16531), and DCAF15 (UniProt: Q66K64) coding sequences were cloned into pFastBac1 vectors and were co-expressed in Sf9 cells using Bac-to-Bac baculovirus expression system (Thermo Fisher Scientific). The expression construct for DCAF15 includes a N-terminal His6-tag to facilitate the purification.
# DCAF15 RBM39 Complex Formation Assay
# LANCE Eu-W1024 Anti-6×His and SureLight Allophycocyanin-anti-FLAG antibodies were purchased from Perkin Elmer. Human DDB1DB and His-tagged DCAF15 were co-expressed in baculovirus/sf9 system. […] The His-tagged DCAF15 contains six histidine residues directly preceding the DCAF15 sequence without any linker. An RBM39 fragment containing RRM1 and RRM2 was expressed in E. coli.
# A compound of the present disclosure in DMSO (2 μL) was transferred to a 384-well assay plate. Compound was added in 14 points, 3-fold serial dilution (1 μM to 0.6 pico molar) in DMSO. […] FRET assay buffer (25 mM HEPES, pH 7.5, 100 mM NaCl, […], 0.5 mM TCEP, 0.005% Tween-20, 0.2 nM Eu-W1024 Anti-6×His, 50 nM SureLight Allophycocyanin-anti-FLAG, 20 nM DDB1DB/DCAF15, 50 nM RBM39 R1R2) was added and the resulting solution was incubated overnight at 4° C. […] Low signal controls containing no compound and high signal controls containing 10 mM indisulam were measured for each plate.
# EC50 values were calculated using Dotmatics template equation for 4-parameter fit.
# Results are expressed as % formation using the following equation: […]
# [2] = biological target: T2, DCAF15 (DDA1-DDB1ΔB-DCAF15Δpro) (Homo sapiens, UniProt Q66K64, DEL276-383); assay: DCAF15 displacement assay (displacement FRET, probe PT7795); type: binding
# T2 construct: made in house; host or cells: Sf9 (Bac-to-Bac baculovirus)
# Description: as §1
# DCAF15 Displacement Assay (Displacement FRET KD)
# Synthesis of the probe PT7795 is described in the article.
# Binding of PT7795 to DDA1-DDB1AB-DCAF15Δpro was measured by the FRET signal between europium-labeled anti-His antibody (AD0205, Perkin Elmer) that is associated with His-tagged DCAF15 and ALX647 moiety in PT7795. […] After equilibrating for 2-3 hours at 4° C., the plate was removed from the incubator, briefly spun, then read on a Spark 10 (Tecan) at the excitation/emission wavelength of 340 nm/615 nm and 340 nm/665 nm.
# Binding of compounds in this disclosure to DCAF15 was measured in a competition by the displacement of PT7795. The concentration of PT7795 was kept at 300 nM while the concentration of a compound was varied from 0.01 to 100 μM. The incubation time was increased to 18 hours for enhanced signal to noise level.
# F=Fmin+(Fmax−Fmin)/(1+10^(logIC50−log[Compound])^n) (Equation 2)
# The Kds can then be calculated from IC50s using Equation 3 (Cheng-Prusoff equation).
# [3] = FRET ratio, 20 nM DDB1DB/DCAF15, 50 nM RBM39 R1R2, overnight at 4° C., read-out: DCAF15 RBM39 ternary complex EC50
# [4] = displacement of PT7795 (300 nM), compound 0.01 to 100 μM, 18 hours incubation, read-out: DCAF15 displacement IC50
# T1 sequence (Q66K64 with tags, fused parts or gaps DEL276-383): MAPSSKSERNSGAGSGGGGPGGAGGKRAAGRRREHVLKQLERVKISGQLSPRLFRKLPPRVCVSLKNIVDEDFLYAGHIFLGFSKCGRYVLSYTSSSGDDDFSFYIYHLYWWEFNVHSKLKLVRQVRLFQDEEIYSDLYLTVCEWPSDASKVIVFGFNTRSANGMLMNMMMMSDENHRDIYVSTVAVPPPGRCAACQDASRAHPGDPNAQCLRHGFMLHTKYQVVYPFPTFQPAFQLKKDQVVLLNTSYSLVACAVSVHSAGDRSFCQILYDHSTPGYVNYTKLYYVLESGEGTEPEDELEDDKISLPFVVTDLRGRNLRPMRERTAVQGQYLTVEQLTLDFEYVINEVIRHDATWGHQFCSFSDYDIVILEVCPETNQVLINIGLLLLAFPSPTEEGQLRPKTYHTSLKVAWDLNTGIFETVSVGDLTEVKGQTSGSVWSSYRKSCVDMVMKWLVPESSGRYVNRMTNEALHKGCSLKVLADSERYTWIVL
# T1 sequence (Q14498 150-331, stated change not applied): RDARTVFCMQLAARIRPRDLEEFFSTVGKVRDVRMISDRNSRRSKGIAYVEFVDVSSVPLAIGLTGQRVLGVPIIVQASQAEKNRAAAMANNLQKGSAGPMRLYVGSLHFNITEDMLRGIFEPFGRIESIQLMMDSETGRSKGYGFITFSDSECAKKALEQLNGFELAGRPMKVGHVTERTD
"EC50 [1, 3]","IC50 [2, 4]",Structure (SMILES),EC50 [1],IC50 [2]
123 nM,1240 nM,"Cn1ccc(CN2Cc3cc(Cl)c4c(Cl)c[nH]c4c3NS2(=O)=O)cc1=O [Compound 61, 4-((6,7-dichloro-2,2-dioxido-4,9-dihydro-[1,2,6]thiadiazino[4,3-g]indol-3(1H)-yl)methyl)-1-methylpyridin-2(1H)-one]",–,–
155 nM,1070 nM,"Cn1c(CN2Cc3cc(Cl)c4c(Cl)c[nH]c4c3NS2(=O)=O)cccc1=O [Compound 62, 6-((6,7-dichloro-2,2-dioxido-4,9-dihydro-[1,2,6]thiadiazino[4,3-g]indol-3(1H)-yl)methyl)-1-methylpyridin-2(1H)-one]",–,–
0.8 nM,680 nM,"CS(=O)(=O)CCCN1Cc2cc(Cl)c3c(Cl)c[nH]c3c2NS1(=O)=O [Compound 77, 6,7-dichloro-3-(3-(methylsulfonyl)propyl)-1,3,4,9-tetrahydro-[1,2,6] thiadiazino[4,3-g]indole 2,2-dioxide]",–,–
0.7 nM,1170 nM,"Nc1ccc(CN2Cc3cc(Cl)c4c(Cl)c[nH]c4c3NS2(=O)=O)cc1 [Compound 78, 3-(4-aminobenzyl)-6,7-dichloro-1,3,4,9-tetrahydro-[1,2,6]thiadiazino[4,3-g]indole 2,2-dioxide]",–,–
8.9 nM,19500 nM,"COCCN1Cc2cc(F)c3c(Cl)c[nH]c3c2NS1(=O)=O [Compound 79, 7-chloro-6-fluoro-3-(2-methoxyethyl)-1,3,4,9-tetrahydro-[1,2,6] thiadiazino[4,3-g]indole 2,2-dioxide]",–,–
18.2 nM,1810 nM,"O=S1(=O)Nc2c(ccc3c(Cl)c[nH]c23)CN1C1CCCOC1 (centres unmarked) [Compound 80, 7-chloro-3-(tetrahydro-2H-pyran-3-yl)-1,3,4,9-tetrahydro-[1,2,6]thiadiazino[4,3-g]indole 2,2-dioxide]",–,–
17.7 nM,32000 nM,"COCCN1Cc2ccc3c(Cl)c[nH]c3c2NS1(=O)=O [Compound 81, 7-chloro-3-(2-methoxyethyl)-1,3,4,9-tetrahydro-[1,2,6] thiadiazino[4,3-g]indole 2,2-dioxide]",–,–
1.1 nM,3320 nM,"O=S1(=O)Nc2c(ccc3c(Cl)c[nH]c23)CN1c1cccnc1 [Compound 82, 7-chloro-3-(pyridin-3-yl)-1,3,4,9-tetrahydro-[1,2,6]thiadiazino[4,3-g]indole 2,2-dioxide]",–,–
1.6 nM,231 nM,"O=S1(=O)Nc2c(cc(Cl)c3c(Cl)c[nH]c23)CN1CC1CC(O)C1 (centres unmarked) [Compound 88, 6,7-dichloro-3-((3-hydroxycyclobutyl)methyl)-1,3,4,9-tetrahydro-[1,2,6]thiadiazino[4,3-g]indole 2,2-dioxide]",–,–
0.8 nM,574 nM,"O=S1(=O)Nc2c(cc(Cl)c3c(Cl)c[nH]c23)CN1CC1CCCO1 (centres unmarked) [Compound 89, 6,7-dichloro-3-((tetrahydrofuran-2-yl)methyl)-1,3,4,9-tetrahydro-[1,2,6] thiadiazino[4,3-g]indole 2,2-dioxide]",–,–
–,–,"O=S1(=O)Nc2c(cc(Cl)c3c(Cl)c[nH]c23)CN1CC1CCCNC1 (centres unmarked) [Compound 90, 6,7-dichloro-3-(piperidin-3-ylmethyl)-1,3,4,9-tetrahydro-[1,2,6] thiadiazino[4,3-g]indole 2,2-dioxide]",1 nM,274 nM
0.4 nM,51.8 nM,"CC(=O)N1CCCC(CN2Cc3cc(Cl)c4c(Cl)c[nH]c4c3NS2(=O)=O)C1 (centres unmarked) [Compound 91, 1-(3-((6,7-dichloro-2,2-dioxido-4,9-dihydro-[1,2,6]thiadiazino[4,3-g]indol-3(1H)-yl)methyl)piperidin-1-yl) ethan-1-one]",–,–
0.7 nM,965 nM,"O=C(CN1Cc2cc(Cl)c3c(Cl)c[nH]c3c2NS1(=O)=O)N1CCOCC1 [Compound 92, 2-(6,7-dichloro-2,2-dioxido-4,9-dihydro-[1,2,6]thiadiazino[4,3-g]indol-3(1H)-yl)-1-morpholinoethan-1-one]",–,–
1.6 nM,773 nM,"C=CCN1Cc2cc(Cl)c3c(Cl)c[nH]c3c2NS1(=O)=O [Compound 93, 3-allyl-6,7-dichloro-1,3,4,9-tetrahydro-[1,2,6] thiadiazino[4,3-g]indole 2,2-dioxide]",–,–
2.9 nM,362 nM,"O=S1(=O)Nc2c(cc(Cl)c3c(Cl)c[nH]c23)CN1CCC1COC1 [Compound 94, 6,7-dichloro-3-(2-(oxetan-3-yl)ethyl)-1,3,4,9-tetrahydro-[1,2,6] thiadiazino[4,3-g]indole 2,2-dioxide]",–,–
1.2 nM,94.9 nM,"O=S1(=O)Nc2c(cc(Cl)c3c(Cl)c[nH]c23)CN1CC1CCCOC1 (centres unmarked) [Compound 95, 6,7-dichloro-3-((tetrahydro-2H-pyran-3-yl)methyl)-1,3,4,9-tetrahydro-[1,2,6] thiadiazino[4,3-g]indole 2,2-dioxide]",–,–
1.2 nM,215 nM,"O=S1(=O)Nc2c(cc(Cl)c3c(Cl)c[nH]c23)CN1CC1CCCCO1 (centres unmarked) [Compound 96, 6,7-dichloro-3-((tetrahydro-2H-pyran-2-yl)methyl)-1,3,4,9-tetrahydro-[1,2,6] thiadiazino[4,3-g]indole 2,2-dioxide]",–,–
1.7 nM,–,"O=c1[nH]ccc(CN2Cc3cc(Cl)c4c(Cl)c[nH]c4c3NS2(=O)=O)c1Cl [Compound 97, 3-chloro-4-((6,7-dichloro-2,2-dioxido-4,9-dihydro-[1,2,6]thiadiazino [4,3-g]indol-3(1H)-yl)methyl)pyridin-2(1H)-one]",–,–
2.3 nM,181 nM,"O=c1cc(CN2Cc3cc(Cl)c4c(Cl)c[nH]c4c3NS2(=O)=O)c(Cl)c[nH]1 [Compound 98, 5-chloro-4-((6,7-dichloro-2,2-dioxido-4,9-dihydro-[1,2,6]thiadiazino [4,3-g]indol-3(1H)-yl)methyl)pyridin-2(1H)-one]",–,–
212 nM,30800 nM,"COCCN1Cc2cc(F)c3c(C#N)c[nH]c3c2NS1(=O)=O [Compound 99, 6-fluoro-3-(2-methoxyethyl)-1,3,4,9-tetrahydro-[1,2,6] thiadiazino[4,3-g]indole-7-carbonitrile 2,2-dioxide]",–,–
168 nM,≥ 100000 nM,"COCCN1Cc2ccc3c(C#N)c[nH]c3c2NS1(=O)=O [Compound 100, 3-(2-methoxyethyl)-1,3,4,9-tetrahydro-[1,2,6] thiadiazino[4,3-g]indole-7-carbonitrile 2,2-dioxide]",–,–
